# In PMC5748027, “Computer-aided design of multi-target ligands at A1R, A2AR and PDE10A, key proteins in neurodegenerative diseases” (Journal of Cheminformatics, 2017):
# How the values were obtained:
# [1] = molecular target: T1, A1 human adenosine receptor (A1R) (Homo sapiens, UniProt P30542); test: Radioligand binding competition assay, human A1 receptor in transfected CHO cells; conditions: for Ki: Cheng-Prusoff approximation; for inhibition at 0.1 µM: 0.1 µM compound, read-out: % displacement at 0.1 μM (A1R)
# T1 construct: expressed in transfected cells; host or cells: CHO
# T1 sequence (P30542 1-326): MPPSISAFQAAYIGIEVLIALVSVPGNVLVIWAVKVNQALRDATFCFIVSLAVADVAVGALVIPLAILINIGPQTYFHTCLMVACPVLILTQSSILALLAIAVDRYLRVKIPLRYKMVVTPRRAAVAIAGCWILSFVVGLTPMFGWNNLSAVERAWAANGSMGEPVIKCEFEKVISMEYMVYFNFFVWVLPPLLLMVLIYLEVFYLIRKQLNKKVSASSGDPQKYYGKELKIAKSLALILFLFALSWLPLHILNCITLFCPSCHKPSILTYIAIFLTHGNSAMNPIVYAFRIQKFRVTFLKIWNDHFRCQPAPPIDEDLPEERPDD
# Procedure: Pharmacological evaluation was performed in a radioligand binding competition assay, using A1, A2A, A2B, and A3 human receptors expressed in transfected CHO (A1), HeLa (A2A and A3), and HEK-293 (A2B) according to the procedure reported by Bosch et al. [78].
# [2] = molecular target: T2, A2A human adenosine receptor (A2AR) (Homo sapiens, UniProt P29274); test: Radioligand binding competition assay, human A2A receptor in transfected HeLa cells; conditions: for % displacement at 0.1 μM (A2AR): 0.1 µM compound; for Ki: Cheng-Prusoff approximation
# T2 construct: expressed in transfected cells; host or cells: HeLa
# Procedure: (§1) Bioactivity testing was performed using A1 and A2A human adenosine receptors expressed in transfected CHO (A1) and HeLa (A2A) cells, as well as AD293 cells that were transiently transfected with human PDE10A. Table 1 includes the list of synthesized 4,6-substituted 2-amino-pyridin-3-carbonitriles, along with their Ki values against A1R, A2AR, and IC50 values against PDE10A.
# (§2) Pharmacological evaluation was performed in a radioligand binding competition assay, using A1, A2A, A2B, and A3 human receptors expressed in transfected CHO (A1), HeLa (A2A and A3), and HEK-293 (A2B) according to the procedure reported by Bosch et al..
# [3] = molecular target: T3, A2B human receptor (A2BR) (Homo sapiens, UniProt P29275); test: Radioligand binding competition assay, human A2B receptor in transfected HEK-293 cells; conditions: 0.1 µM compound; read-out: percentage displacement at 0.1µM (A2BR)
# T3 construct: expressed in transfected cells; host or cells: HEK-293
# T3 sequence (P29275 1-332): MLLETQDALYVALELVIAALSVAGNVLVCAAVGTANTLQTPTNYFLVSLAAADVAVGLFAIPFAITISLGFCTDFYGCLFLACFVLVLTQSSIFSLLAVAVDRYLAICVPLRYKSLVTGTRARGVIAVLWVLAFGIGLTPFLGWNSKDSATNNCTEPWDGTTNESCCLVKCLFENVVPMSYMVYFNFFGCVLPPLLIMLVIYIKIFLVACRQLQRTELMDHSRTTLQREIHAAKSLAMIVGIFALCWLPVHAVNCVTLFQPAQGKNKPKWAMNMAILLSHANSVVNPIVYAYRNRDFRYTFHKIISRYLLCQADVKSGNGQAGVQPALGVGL
# Procedure: as §2
# [4] = molecular target: T4, A3 human receptor (A3R) (Homo sapiens, UniProt P0DMS8); test: Radioligand binding competition assay, human A3 receptor in transfected HeLa cells; conditions: 0.1 µM compound; read-out: percentage displacement at 0.1µM (A3R)
# T4 construct: expressed in transfected cells; host or cells: HeLa
# T4 sequence (P0DMS8 1-318): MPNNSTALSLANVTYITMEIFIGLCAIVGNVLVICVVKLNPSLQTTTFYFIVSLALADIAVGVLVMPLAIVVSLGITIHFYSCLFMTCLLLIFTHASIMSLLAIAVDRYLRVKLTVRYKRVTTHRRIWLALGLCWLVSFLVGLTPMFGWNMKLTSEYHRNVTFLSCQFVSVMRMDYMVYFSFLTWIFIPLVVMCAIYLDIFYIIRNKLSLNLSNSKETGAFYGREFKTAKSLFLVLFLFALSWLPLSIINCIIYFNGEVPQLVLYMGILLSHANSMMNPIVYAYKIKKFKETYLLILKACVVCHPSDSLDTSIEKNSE
# Procedure: as §2
# [5] = molecular target: T5, human PDE10A (Homo sapiens, UniProt Q9Y233); test: Phosphodiesterase activity, AD293 cells transiently transfected with human PDE10A; type: biochemical; conditions: for inhibition at 10 µM: read-out: % inhibition at 10 μM (PDE10A), 10 μM compound; for IC50: mean of 3 experiments in duplicate
# T5 construct: expressed in transfected cells; host or cells: AD293 (transient transfection)
# Procedure: as §1
# (§3) The activity measurements against the phosphodiesterases PDE7A, PDE7B, PDE9A and PDE10A were performed using AD293 cells that were transiently and separately transfected with human PDE7A, PDE7B, PDE9A, and PDE10A following the procedure described by Shipe et al..
# [6] = molecular target: T6, human PDE7A (Homo sapiens, UniProt Q13946); test: Phosphodiesterase activity, AD293 cells transiently transfected with human PDE7A; type: biochemical; conditions: 10 µM compound; read-out: Percentage inhibition at 10µM (PDE7A)
# T6 construct: expressed in transfected cells; host or cells: AD293 (transient transfection)
# Procedure: as §3
# [7] = molecular target: T7, human PDE7B (Homo sapiens, UniProt Q9NP56); test: Phosphodiesterase activity, AD293 cells transiently transfected with human PDE7B; type: biochemical; conditions: 10 µM compound; read-out: Percentage inhibition at 10µM (PDE7B)
# T7 construct: expressed in transfected cells; host or cells: AD293 (transient transfection)
# Procedure: as §3
# [8] = molecular target: T8, human PDE9A (Homo sapiens, UniProt O76083); test: Phosphodiesterase activity, AD293 cells transiently transfected with human PDE9A; type: biochemical; conditions: 10 µM compound; read-out: Percentage inhibition at 10µM (PDE9A)
# T8 construct: expressed in transfected cells; host or cells: AD293 (transient transfection)
# Procedure: as §3
# T8 sequence (O76083 whole entry): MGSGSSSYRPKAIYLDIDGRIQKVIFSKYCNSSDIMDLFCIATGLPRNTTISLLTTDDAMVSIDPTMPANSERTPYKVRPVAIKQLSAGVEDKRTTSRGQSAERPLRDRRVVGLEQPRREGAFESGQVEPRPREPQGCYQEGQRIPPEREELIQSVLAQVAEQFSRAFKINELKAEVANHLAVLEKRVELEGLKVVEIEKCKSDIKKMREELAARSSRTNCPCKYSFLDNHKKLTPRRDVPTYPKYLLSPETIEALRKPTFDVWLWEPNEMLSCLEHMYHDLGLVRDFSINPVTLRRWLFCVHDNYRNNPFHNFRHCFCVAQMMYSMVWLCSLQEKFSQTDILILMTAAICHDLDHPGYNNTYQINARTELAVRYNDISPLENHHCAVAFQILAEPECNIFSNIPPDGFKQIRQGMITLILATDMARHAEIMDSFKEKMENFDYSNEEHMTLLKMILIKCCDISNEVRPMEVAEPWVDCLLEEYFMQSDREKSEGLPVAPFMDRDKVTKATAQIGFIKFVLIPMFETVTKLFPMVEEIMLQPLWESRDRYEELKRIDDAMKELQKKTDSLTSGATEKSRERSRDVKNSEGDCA
# T5 sequence (Q9Y233 267-1055 limits assumed): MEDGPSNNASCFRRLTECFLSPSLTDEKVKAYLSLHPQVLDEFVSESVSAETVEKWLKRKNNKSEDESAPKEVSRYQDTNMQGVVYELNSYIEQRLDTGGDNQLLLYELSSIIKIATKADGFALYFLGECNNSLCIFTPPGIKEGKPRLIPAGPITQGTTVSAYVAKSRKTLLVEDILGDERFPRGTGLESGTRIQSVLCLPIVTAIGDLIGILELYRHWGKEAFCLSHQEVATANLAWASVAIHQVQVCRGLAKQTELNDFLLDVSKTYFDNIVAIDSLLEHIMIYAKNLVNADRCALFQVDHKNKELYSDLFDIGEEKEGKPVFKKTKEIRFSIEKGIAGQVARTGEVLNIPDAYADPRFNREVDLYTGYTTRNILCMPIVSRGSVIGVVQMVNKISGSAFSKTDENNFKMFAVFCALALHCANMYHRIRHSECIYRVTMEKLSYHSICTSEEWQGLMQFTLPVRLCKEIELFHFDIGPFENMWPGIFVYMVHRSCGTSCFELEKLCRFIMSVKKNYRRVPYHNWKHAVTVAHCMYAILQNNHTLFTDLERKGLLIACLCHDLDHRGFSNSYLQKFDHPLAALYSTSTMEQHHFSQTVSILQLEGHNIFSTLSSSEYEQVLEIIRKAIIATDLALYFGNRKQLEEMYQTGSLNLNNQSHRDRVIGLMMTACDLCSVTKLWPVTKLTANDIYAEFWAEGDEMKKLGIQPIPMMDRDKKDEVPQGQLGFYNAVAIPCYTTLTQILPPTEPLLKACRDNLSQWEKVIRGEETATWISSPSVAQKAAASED
# T7 sequence (Q9NP56 whole entry): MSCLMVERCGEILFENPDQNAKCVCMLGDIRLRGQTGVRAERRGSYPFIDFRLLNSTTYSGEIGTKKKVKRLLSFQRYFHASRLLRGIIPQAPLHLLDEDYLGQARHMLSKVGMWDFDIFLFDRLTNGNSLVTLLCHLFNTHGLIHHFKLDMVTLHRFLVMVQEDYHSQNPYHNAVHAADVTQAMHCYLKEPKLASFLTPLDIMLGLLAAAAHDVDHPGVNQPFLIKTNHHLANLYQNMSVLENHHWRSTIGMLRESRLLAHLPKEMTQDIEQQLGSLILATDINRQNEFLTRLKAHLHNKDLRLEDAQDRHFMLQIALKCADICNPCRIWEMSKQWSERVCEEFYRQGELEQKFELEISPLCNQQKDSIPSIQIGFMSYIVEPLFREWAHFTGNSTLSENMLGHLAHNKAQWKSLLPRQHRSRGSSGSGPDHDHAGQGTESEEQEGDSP
# T2 sequence (P29274 whole entry): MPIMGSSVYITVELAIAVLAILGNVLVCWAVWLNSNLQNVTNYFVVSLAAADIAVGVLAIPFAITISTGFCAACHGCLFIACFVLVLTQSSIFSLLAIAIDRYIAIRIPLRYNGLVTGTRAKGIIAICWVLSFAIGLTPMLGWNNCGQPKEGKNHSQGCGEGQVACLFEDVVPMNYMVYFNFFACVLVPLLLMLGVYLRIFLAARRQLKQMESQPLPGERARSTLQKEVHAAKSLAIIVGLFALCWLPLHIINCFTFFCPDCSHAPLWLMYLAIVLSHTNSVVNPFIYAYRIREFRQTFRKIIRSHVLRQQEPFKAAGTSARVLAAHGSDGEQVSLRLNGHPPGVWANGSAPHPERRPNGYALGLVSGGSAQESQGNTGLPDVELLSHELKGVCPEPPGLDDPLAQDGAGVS
# T6 sequence (Q13946 whole entry): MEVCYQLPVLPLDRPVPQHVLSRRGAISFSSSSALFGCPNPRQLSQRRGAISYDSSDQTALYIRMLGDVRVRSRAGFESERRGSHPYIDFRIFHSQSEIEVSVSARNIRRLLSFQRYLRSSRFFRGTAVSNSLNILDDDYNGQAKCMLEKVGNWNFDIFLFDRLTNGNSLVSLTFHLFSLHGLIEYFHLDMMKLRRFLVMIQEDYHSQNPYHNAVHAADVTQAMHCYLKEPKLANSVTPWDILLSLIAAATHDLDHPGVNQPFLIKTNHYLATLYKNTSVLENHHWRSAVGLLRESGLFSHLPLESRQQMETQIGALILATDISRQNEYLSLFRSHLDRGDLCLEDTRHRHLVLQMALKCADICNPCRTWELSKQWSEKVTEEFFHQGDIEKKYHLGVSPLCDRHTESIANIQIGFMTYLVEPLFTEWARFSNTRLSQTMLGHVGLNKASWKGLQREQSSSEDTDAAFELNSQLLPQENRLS
Ki [1] [µM],% displacement at 0.1 μM (A2AR) [2] [%],inhibition at 0.1 µM [3] [%],inhibition at 0.1 µM [4] [%],inhibition at 10 µM [5] [%],inhibition at 10 µM [6] [%],inhibition at 10 µM [7] [%],inhibition at 10 µM [8] [%],melting point [°C],selectivity over all tested off-targets ([5]; PDE10A IC50 versus lowest selectivity at PDE7B (55% inhibition at 10 µM)),IC50 [5] [µM],inhibition at 0.1 µM [1] [%],Ki [2] [µM],SMILES
0.025 ± 0.002,5,1,2,17,22,8,19,220 to 221,–,–,–,–,"N#Cc1c(-c2ccc3c(c2)OCO3)cc(-c2ccccc2)nc1N [Compound 7, 2-amino-4-(2H-1,3-benzodioxol-5-yl)-6-phenylpyridine-3-carbonitrile]"
0.294 ± 0.01,50,1,13,–,26,55,30,125 to 126,twofold,2.4 ± 0.2,–,–,"N#Cc1c(C2CCCCC2)cc(-c2ccccc2)nc1N [Compound 8, 2-amino-4-cyclohexyl-6-phenylpyridine-3-carbonitrile]"
–,60,2,14,–,29,60,3,145 to 146,–,0.9 ± 0.2,44,–,"N#Cc1c(C2CCCCC2)cc(-c2ccsc2)nc1N [Compound 12, 2-amino-4-cyclohexyl-6-(thiophen-3-yl)pyridine-3-carbonitrile]"
0.07 ± 0.003,–,3,19,55,44,41,4,177 to 178,–,–,–,0.049 ± 0.004,"N#Cc1c(C2CCCCC2)cc(-c2ccco2)nc1N [Compound 13, 2-amino-4-cyclohexyl-6-(furan-2-yl)pyridine-3-carbonitrile]"
–,11,1,26,–,33,45,6,160 to 162,–,1.2 ± 0.1,16,–,"N#Cc1c(C2CCCCC2)cc(-c2cccs2)nc1N [Compound 11, 2-amino-4-cyclohexyl-6-(thiophen-2-yl)pyridine-3-carbonitrile]"
–,32,5,13,–,50,48,2,152 to 153,–,3.6 ± 0.3,26,–,"Cn1cccc1-c1cc(-c2ccccc2)c(C#N)c(N)n1 [Compound 4, 2-amino-6-(1-methyl-1H-pyrrol-2-yl)-4-phenylpyridine-3-carbonitrile]"
0.084 ± 0.008,34,2,7,68,19,34,1,126 to 127,–,–,–,–,"N#Cc1c(C2CCCCC2)cc(-c2ccccc2F)nc1N [Compound 9, 2-amino-4-cyclohexyl-6-(2-fluorophenyl)pyridine-3-carbonitrile]"
–,8,3,6,–,24,36,5,154 to 156,–,2 ± 0.2,12,–,"N#Cc1c(-c2ccccc2)cc(-c2nccs2)nc1N [Compound 3, 2-amino-4-phenyl-6-(1,3-thiazol-2-yl)pyridine-3-carbonitrile]"
0.078 ± 0.005,–,1,1,38,25,36,0,180 to 181,–,–,–,0.948 ± 0.013,"N#Cc1c(-c2ccccc2F)cc(-c2ccccc2F)nc1N [Compound 18, 2-amino-4,6-bis(2-fluorophenyl)pyridine-3-carbonitrile]"
